According to patent US20190119204A1, “ROR GAMMA (RORy) MODULATORS” (Lead Pharma Holding B.V., priority 2016, published 2019):
Values after ≈ are worked out from the molar mass of the structure shown. Where two headings read alike, the source gives them in different places.

Assays:
[1] = Aqueous equilibrated solubility; assay type: physicochemical; conditions: thermodynamic from solid; aqueous phosphate buffer 50 mM pH 7.4, shaken overnight at RT; pH 7.5 = pH of the solubilized fraction
Procedure: The studied compound was accurately weighted with a target concentration of 2 mg/mL in an aqueous phosphate buffer (50 mM at pH=7.4). The solution was shaken overnight (rock'n roll shaker) at RT and protected from light (about 24 hrs). The solution was filtered in plate filter device (microplate Millipore “Solvinert” with integrated PTFE filter; 0.45 μm) and the filtrate was dosed by LC/UV method.
The studied compound was accurately weighted with a target concentration of 0.1 mg/mL in DMSO. The solution was sonicated at RT and protected from light. The reference solution was dosed by a LC/UV method and pH of the solubilized fraction was measured.

[2] = target: T1, RORγ (Homo sapiens, UniProt P51449); experiment: RORγ GAL4 reporter gene assay; assay type: cell-based; conditions: 293FT cells, luciferase readout; average of 5 experiments; read-out: RORγ GAL4 reporter gene assay pIC50 Average (converted)
T1 construct: expressed in transfected cells; host or cells: 293FT cells (Invitrogen), expression vector pFN26A (Promega)
T1 sequence (P51449 269-508 limits assumed): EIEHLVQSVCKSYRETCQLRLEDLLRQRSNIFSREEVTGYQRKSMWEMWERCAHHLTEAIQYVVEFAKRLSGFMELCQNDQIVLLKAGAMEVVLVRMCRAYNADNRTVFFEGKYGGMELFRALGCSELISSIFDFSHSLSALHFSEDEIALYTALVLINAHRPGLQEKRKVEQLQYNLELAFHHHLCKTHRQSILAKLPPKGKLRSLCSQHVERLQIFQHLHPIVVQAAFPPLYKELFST
Procedure: Examples 2-3 of the present […] application and example No. 37 from WO2015/082533 were tested for their ability to inhibit RORγ activity in a RORγ GAL4 reporter gene assay.
A GAL4 one-hybrid reporter system employing luciferase readout was established to determine inhibition of RORγ in 293FT cells. The RORγ ligand-binding domain (LBD) was fused to the yeast GAL4 DNA binding domain (DBD) and placed under the control of the human cytomegalovirus (CMV) immediate early promoter, using expression vector pFN26A (Promega) and standard recombinant DNA cloning methods. To serve as a control in the assay, a similar vector was generated in which the GAL4-DBD was fused to Herpes simplex virus protein 16 (VP16), a constitutive transcriptional activator.
To monitor the inhibitory effect of compounds on RORγ, a transcriptional reporter construct was used. The pGL4.35 vector (Promega) contains nine copies of the GAL4 Upstream Activator Sequence (UAS). […]
The day after transfection, cells were plated into 96 well plates, test compound was added and the plates were incubated overnight. Subsequently, the firefly luciferase activity was quantified using luciferase detection reagent and luminescence readout. […]
For compound screening, the cells were harvested (as described above) and counted. […]

[3] = tested on: IL-17A production in anti-CD3/anti-CD28 stimulated peripheral blood mononuclear cells (PBMCs); experiment: Peripheral blood mononuclear cell (PBMC) IL-17 assay; assay type: cell-based; conditions: 120 h, human PBMCs, 5 days, IL-17A AlphaLISA, average of 11 human donors, read-out: PBMC IL-17 assay pIC50 Average (converted)
Procedure: Examples 2-3 of the present application and example No.37 from WO2015/082533 were tested for their ability to inhibit the IL-17A production in anti-CD3/anti-CD28 stimulated peripheral blood mononuclear cells (PBMCs) isolated from human blood.
This assay is designed to measure the levels of IL-17A secreted from anti-CD3/anti-CD28 stimulated PBMCs with the aim of measuring the inhibition of RORγ mediated IL-17A production.
The assay medium consists of 90% RPMI 1640 (Lonza), 10% heat-inactivated fetal bovine serum (FBS, Lonza) and 100 U/mL penicillin/streptomycin solution.
Anti-CD3 antibody (BD Pharmingen) was diluted to 10 μg/ml in PBS (Lonza). 30 μL of 10 μg/ml anti-CD3 solution was added to the inner 60 wells of a 96-well cell culture treated U-bottom plate (Greiner). Plates were incubated overnight (16-24 hours) at 37° C. and 5% CO2. […]
After incubation, the plates were spun down at 1500 rpm for 4 minutes and the supernatant was collected. Subsequently, the IL-17A levels in the supernatants was determined using an IL-17A AlphaLISA kit (Perkin Elmer) according to the manufacturer's protocol.
The half maximum inhibitory concentration (IC50) values for the test compounds were calculated from the IL-17A signal using GraphPad Prism software (GraphPad Software).

[4] = target: T2, CYP3A4 (Homo sapiens, UniProt P08684); experiment: CYP3A4 inhibition assay; assay type: in vitro ADME; conditions: human liver microsomes
T2 construct: containing human liver microsomes (0.1 mg/mL); from tissue; host or cells: human liver microsomes
T2 sequence (P08684 whole entry): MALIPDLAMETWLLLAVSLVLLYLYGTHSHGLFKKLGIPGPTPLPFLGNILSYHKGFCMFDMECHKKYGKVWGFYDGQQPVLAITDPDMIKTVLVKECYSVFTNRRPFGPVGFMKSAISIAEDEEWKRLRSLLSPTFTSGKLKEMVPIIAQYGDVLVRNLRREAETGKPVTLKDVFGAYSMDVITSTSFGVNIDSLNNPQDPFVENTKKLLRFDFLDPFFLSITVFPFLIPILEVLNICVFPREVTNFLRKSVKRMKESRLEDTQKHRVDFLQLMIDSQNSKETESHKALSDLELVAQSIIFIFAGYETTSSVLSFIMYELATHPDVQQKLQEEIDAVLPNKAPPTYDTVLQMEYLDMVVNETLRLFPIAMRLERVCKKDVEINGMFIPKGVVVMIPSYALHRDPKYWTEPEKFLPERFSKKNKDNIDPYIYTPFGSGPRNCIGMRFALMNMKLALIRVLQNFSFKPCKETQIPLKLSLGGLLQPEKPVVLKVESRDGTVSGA
Procedure: In the CYP3A4 inhibition assay, in vitro IC50 of a test compound as direct inhibitor against CYP3A4 is determined, by measuring the inhibition of the turn-over of probe substrates of CYP3A4 (Midazolam and Testosterone) to their specific metabolites i.e., 1′-Hydroxymidazolam, 6β-Hydroxytestosterone, in human liver microsomes.
Examples 2-3 of the present application and example No.37 from WO2015/082533 were tested for CYP3A4 inhibition using two different probes: midazolam and testosterone.
Test compound dissolved in DMSO at selected concentrations was added to a phosphate buffer (50 mM, pH 7.4) containing human liver microsomes (0.1 mg/mL), MgCl (6 mM) and EDTA (0.5 mM) and CYP3A probe substrate, either midazolam (3 μM). Test compound was evaluated at the concentrations 1, 3, 10 and 30 μM and the final DMSO concentration in the incubation was 0.5%. After addition of […] NADPH the mixture was incubated at 37° C. for 10 min (midazolam) or 30 min (testosterone). The reaction was terminated by addition of cold CH3CN containing internal standard, centrifuged and formation of the CYP3A specific metabolite (either 1′-hydroxymidazolam or 6-β-hydroxytestosterone) was quantified by UPLC-MS/MS. The relative CYP3A activity at each test concentration was calculated and IC50 values determined using XLfit.

[5] = target: T3, hERG (human Ether-à-go-go-Related Gene) potassium channel (Homo sapiens, UniProt Q12809); experiment: hERG channel patch-clamp assay; assay type: cell-based; conditions: CHO cells stably expressing hERG, whole-cell patch-clamp, room temperature; read-out: hERG inhibition Assay IC50
T3 construct: expressed in transfected cells
T3 sequence (Q12809 whole entry): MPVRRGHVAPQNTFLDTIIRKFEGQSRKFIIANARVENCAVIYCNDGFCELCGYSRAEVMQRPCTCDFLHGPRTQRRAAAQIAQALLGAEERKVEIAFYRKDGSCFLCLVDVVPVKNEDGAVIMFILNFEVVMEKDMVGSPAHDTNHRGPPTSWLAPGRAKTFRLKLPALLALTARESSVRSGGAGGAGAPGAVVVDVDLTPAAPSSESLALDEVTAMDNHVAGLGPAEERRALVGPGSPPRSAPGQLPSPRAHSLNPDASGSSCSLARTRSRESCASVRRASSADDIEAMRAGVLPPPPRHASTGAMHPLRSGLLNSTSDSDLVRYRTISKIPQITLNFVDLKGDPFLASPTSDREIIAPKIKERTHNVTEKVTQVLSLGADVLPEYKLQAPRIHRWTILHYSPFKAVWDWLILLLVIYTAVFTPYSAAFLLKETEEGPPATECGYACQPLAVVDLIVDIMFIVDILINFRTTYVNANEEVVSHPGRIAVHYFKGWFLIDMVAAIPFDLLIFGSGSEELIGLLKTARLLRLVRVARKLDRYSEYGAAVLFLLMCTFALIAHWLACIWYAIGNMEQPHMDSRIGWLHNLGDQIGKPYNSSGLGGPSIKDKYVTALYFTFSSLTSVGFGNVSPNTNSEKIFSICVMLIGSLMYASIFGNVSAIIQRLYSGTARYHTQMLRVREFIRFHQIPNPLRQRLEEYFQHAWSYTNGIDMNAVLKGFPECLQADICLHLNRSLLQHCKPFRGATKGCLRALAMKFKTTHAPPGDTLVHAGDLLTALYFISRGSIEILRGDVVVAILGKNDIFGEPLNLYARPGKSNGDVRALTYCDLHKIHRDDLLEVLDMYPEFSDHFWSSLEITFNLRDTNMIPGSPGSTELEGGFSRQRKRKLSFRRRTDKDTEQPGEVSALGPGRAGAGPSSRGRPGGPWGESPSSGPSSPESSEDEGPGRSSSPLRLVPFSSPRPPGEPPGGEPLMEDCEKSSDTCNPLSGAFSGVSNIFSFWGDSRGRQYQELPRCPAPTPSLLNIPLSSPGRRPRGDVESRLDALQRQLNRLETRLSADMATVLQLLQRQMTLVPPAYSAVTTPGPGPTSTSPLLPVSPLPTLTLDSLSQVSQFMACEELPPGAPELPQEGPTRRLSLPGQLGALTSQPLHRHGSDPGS
Procedure: The hERG assay, in which hERG is brought to expression in CHO cells, provides information of the interaction of a compound with the hERG channel. The amplitude of hERG potassium channel tail currents are recorded under control and the compound solution at different concentrations. Then the IC50 value is determined from the dose-response curve.
Examples 2-3 of the present application and example No. 37 of WO2015/082533 were tested in vitro against the hERG (human Ether-à-go-go-Related Gene) potassium channel.
Frozen CHO (Chinese hamster ovary) cells stably expressing hERG channels were thawed and seeded on glass coverslips in petri dishes. Cells were cultured in HAM's F-12 media supplemented with 10% fetal bovine serum, 100 IU/mL penicillin, 100 μg/mL streptomycin and 500 μg/mL G418 (Invitrogen, Carlsbad, Calif.) in an atmosphere of 95% air/5% CO2 at 37° C. CHO cells were ready for patch-clamping after culture for 1-5 days. hERG currents were recorded at room temperature using the whole-cell patch-clamp technique with an Axopatch 200B amplifier (Molecular Devices, Sunnyvale Calif.). […] Currents were analyzed using the pCLAMP suite of software (Molecular Devices). […]

[6] = midazolam probe, read-out: CYP3A4 inhibition Assay IC50, Midazolam probe
[7] = testosterone probe, read-out: CYP3A4 inhibition Assay IC50, Testosterone probe

| solubility at 24 h [1] | IC50 [2] | IC50 [4, 6] | IC50 [4, 7] | SMILES | IC50 [3] | IC50 [5] |
| --- | --- | --- | --- | --- | --- | --- |
| 94.8 µg/mL (≈ 205 µM) | – | – | – | O=C(Cc1ccc([S@@+]([O-])CC2CC2)cc1)Nc1ccc([C@@](O)(C(F)F)C(F)(F)F)cc1 (single isomer, unassigned) [Example 10] | – | – |
| 92.5 µg/mL (≈ 200 µM) | – | – | – | O=C(Cc1ccc([S@@+]([O-])CC2CC2)cc1)Nc1ccc([C@](O)(C(F)F)C(F)(F)F)cc1 (single isomer, unassigned) [Example 11] | – | – |
| 94.4 µg/mL (≈ 205 µM) | – | – | – | O=C(Cc1ccc([S@+]([O-])CC2CC2)cc1)Nc1ccc([C@@](O)(C(F)F)C(F)(F)F)cc1 (single isomer, unassigned) [Example 12] | – | – |
| 93 µg/mL (≈ 202 µM) | – | – | – | O=C(Cc1ccc([S@+]([O-])CC2CC2)cc1)Nc1ccc([C@](O)(C(F)F)C(F)(F)F)cc1 (single isomer, unassigned) [Example 13] | – | – |
| < 1 µg/mL | 0.0398 µM | 24 µM | 13 µM | O=C(Cc1ccc(S(=O)(=O)CC2CC2)cc1)Nc1ccc([C@@](O)(C(F)F)C(F)(F)F)cc1 [Example 2, (+)-2-[4-(cyclopropylmethylsulfonyl)phenyl]-N-[4-[(1R)-1-(difluoromethyl)-2,2,2-trifluoro-1-hydroxy-ethyl]phenyl]acetamide] | 0.0631 µM | 14.2 µM |
| < 1 µg/mL | 0.0126 µM | > 30 µM | 16 µM | O=C(Cc1ccc(S(=O)(=O)CC2CC2)cc1)Nc1ccc([C@](O)(C(F)F)C(F)(F)F)cc1 [Example 3, (−)-2-[4-(cyclopropylmethylsulfonyl)phenyl]-N-[4-[(1S)-1-(difluoromethyl)-2,2,2-trifluoro-1-hydroxy-ethyl]phenyl]acetamide] | 0.0251 µM | 11.2 µM |
| 99.4 µg/mL (≈ 215 µM) | – | – | – | O=C(Cc1ccc([S+]([O-])CC2CC2)cc1)Nc1ccc(C(O)(C(F)F)C(F)(F)F)cc1 (centres unmarked) [Example 9, 2-[4-(cyclopropylmethylsulfinyl)phenyl]-N-[4-[1-(difluoromethyl)-2,2,2-trifluoro-1-hydroxy-ethyl]phenyl]acetamide] | – | – |
